This note sets out measurements from patent publication US7745483B2, “2-Halofuryl-thienyl-3-carboxamides” (Bayer CropScience AG, priority 2004, dated 2010).

For the first test, the system named is Puccinia recondita. Nature of the test: Puccinia test (wheat)/protective. The format is in vivo. The note with it: 240 h, protective, application rate 500 g/ha, evaluation 10 days after inoculation, read-out: Efficacy in %. As to the method:
[table] To produce a suitable preparation of active compound, 1 part by weight of active compound is mixed with the stated amounts of solvent and emulsifier, and the concentrate is diluted with water to the desired concentration. To test for protective activity, young plants are sprayed with the preparation of active compound at the stated application rate. After the spray coating has dried on, the plants are sprayed with a conidia suspension Puccinia recondita. The plants remain in an incubation cabin at 20° C. and 100% relative atmospheric humidity for 48 hours. The plants are then placed in a greenhouse at a temperature of about 20° C. and a relative atmospheric humidity of 80% to promote the development of rust pustules. Evaluation is carried out 10 days after the inoculation. 0% means an efficacy which corresponds to that of the control, whereas an efficacy of 100% means that no infection is observed.
For the molecule `CC(C[Si](C)(C)C)c1ccccc1NC(=O)c1ccoc1I` (stereo not shown) [drawing 275], the pest or weed control at 500 g/ha is 100%.

Regarding `O=C(Nc1ccccc1-c1ccc(F)c(Cl)c1)c1ccsc1I` [drawing 286], the pest or weed control at 500 g/ha amounted to 100%. The same measure, in the same setting: then `O=C(Nc1ccccc1-c1ccc(Cl)cc1)c1ccoc1I` [drawing 267], with 100%; and `CC(CC(C)(C)C)c1ccccc1NC(=O)c1ccsc1I` (stereo not shown) [drawing 272], with 100%.

The next test deals with Alternaria solani. Nature of the test: Alternaria test (tomato)/protective. Type of test: in vivo. The following applies: protective, application rate 750 g/ha, evaluation 7 days after inoculation. As to the method:
[table] To produce a suitable preparation of active compound, 1 part by weight of active compound is mixed with the stated amounts of solvent and emulsifier, and the concentrate is diluted with water to the desired concentration. To test for protective activity, young tomato plants are sprayed with the preparation of active compound at the stated application rate. One day after the treatment, the plants are inoculated with a spore suspension of Alternaria solani and then remain at 100% relative humidity and at 20° C. for 24 hours. The plants then remain at 96% relative atmospheric humidity and a temperature of 20° C. Evaluation is carried out 7 days after the inoculation. 0% means an efficacy which corresponds to that of the control, whereas an efficacy of 100% means that no infection is observed.
As for `CC(C)(C)CCc1ccccc1NC(=O)c1ccsc1I` [drawing 288], the Efficacy in % came out at 94%.

In turn, `CC(C)CC(C)c1ccccc1NC(=O)c1ccoc1I` (stereo not shown) [drawing 290] yielded an Efficacy in % of 94%.

Take `CC(C)CC(C)c1ccccc1NC(=O)c1ccsc1I` (stereo not shown) [drawing 289]: the Efficacy in % is recorded as 100%.
